The source of these data is article PMC3190057 (Food and chemical toxicology : an international journal …, 2011).

“And” between values parts separate entries of the source, which are not always exact repeats. Identical values can stand only once. Bounds are passed on as bounds.

The term EC50 denotes the midpoint of the concentration-response curve. A low value points to a more potent agent.

Data set [1] has as its system P-gp. Put plainly: P-gp functional activity, rhodamine 123 uptake with or without 100 μM verapamil. The note with it: LS-180 cells; for increase in P-gp activity: 48 h; for Emax (fold ↑ in P-gp activity): Hill equation fit.
The conditions of data set [2]: human subjects, oral administration, cited from earlier work.
Data set [3] deals with P-gp. Put plainly: in vitro. The note with it: human.
Data set [4] relates to P-gp. Briefly: In vitro induction of P-gp expression, Western blotting. Type of data set: cell-based, human. The note with it: LS-180 cells, 25 μM, 48 h, Western blot densitometry, P-gp/β-actin. For orientation: A western blot detects proteins with antibodies after separation by electrophoresis.
In data set [5] the test system is P-gp. Put plainly: Immunofluorescence staining and imaging of membrane P-gp. Type of data set: cell-based, human. The note with it: LS-180 cells, 25 μM, 48 h, mean ± SD (n=4).
Data set [6] deals with LS-180 cells. Briefly: Toxicity to LS-180 cells during the induction treatment. Type of data set: cell-based, human.

As for `CO[C@H]1/C=C/O[C@@]2(C)Oc3c(C)c(O)c4c(O)c(c(/C=N/N5CCN(C)CC5)c(O)c4c3C2=O)NC(=O)/C(C)=C\C=C\[C@H](C)[C@H](O)[C@@H](C)[C@@H](O)[C@@H](C)[C@H](OC(C)=O)[C@@H]1C` [rifampicin, Rifampicin, reference compound], the “increase in P-gp activity” value worked out at 180% in data set [1] (5 μM) and 230% in data set [1] (25 μM). In addition, the “Emax (fold ↑ in P-gp activity)” value in data set [1] stood at 4.4 fold. The “decrease in digoxin area under the plasma curve (AUC)” value in data set [2] (ref Greiner et al., 1999) was 30%. Moreover, in data set [2] (ref Kim et al., 2008), the “decrease in risperidone area under the plasma curve (AUC)” value is listed as 51%. This compound also gave an EC50 at 48 h in data set [3] of 26.8 µM. In data set [4], the “fold increase in the expression of P-gp protein compared to control” value is recorded as 5 fold.
As to `CC(C)=CCC/C(C)=C/CC/C(C)=C/CC[C@]1(C)CCc2cc(O)c(C)c(C)c2O1` [γ-tocotrienol, γ-Tocotrienol], the “increase in P-gp activity” value in data set [1] (10 μM) is above 45%. Further, the “Emax (fold ↑ in P-gp activity)” value in data set [1] was found to be 1.7 fold. For the same compound, the “fold-increase in membrane P-gp expression compared to the control” value in data set [5] is 4.6 ± 0.39 fold. Also, the EC50 at 48 h in data set [3] (LS-180 cells, probe rhodamine 123 (1 μg/mL), with verapamil 100 μM) was found to be 5.9 µM. Moreover, the “fold increase in the expression of P-gp protein compared to control” value in data set [4] was 2.3-3.0 fold and 2.5 fold. For the same compound, in data set [6], the “concentration toxic to the cells” value is above 25 µM.
As to `C[C@H]1[C@H](C)CC[C@]2(C(=O)O)CC[C@]3(C)C(=CC[C@@H]4[C@@]5(C)C[C@@H](O)[C@H](O)[C@@](C)(CO)[C@@H]5CC[C@]43C)[C@H]12` [asiatic acid, Asiatic acid], the “increase in P-gp activity” value in data set [1] (25 μM) is above 45%. The “Emax (fold ↑ in P-gp activity)” value in data set [1] is 1.5 fold. Moreover, in data set [5], the “fold-increase in membrane P-gp expression compared to the control” value came to 2.5 ± 0.95 fold. Also, the EC50 at 48 h in data set [3] turned out to be 11.3 µM. Moreover, the “fold increase in the expression of P-gp protein compared to control” value in data set [4] is 2.3-3.0 fold and 2.6 fold.
Turning to `C/C=C(/C=O)[C@@H](CC=O)CC(=O)OCCc1ccc(O)cc1` [oleocanthal, (-)-Oleocanthal], the “Emax (fold ↑ in P-gp activity)” value in data set [1] was 4.5 fold. Further, in data set [5], the “fold-increase in membrane P-gp expression compared to the control” value was found to be 9.3 ± 0.37 fold. In addition, the midpoint of the response in data set [3], the EC50 at 48 h, lay at 14 µM. Besides, in data set [4], the “fold increase in the expression of P-gp protein compared to control” value was 2.3-3.0 fold and 2.3 fold.
